From EPA's ToxRefDB 2 come the findings set out here.

In data set [1] the test system is dog. To be noted: Chronic toxicity, beagle, Oral, Feed, dose end: 52 week.
Data set [2] has as its system mouse. To be noted: Subchronic oral toxicity in rodents, cd1, Feed, dose end: 8 week.
Data set [3] relates to mouse. The following applies: Combined chronic toxicity/carcinogenicity, cd1, Oral, Feed, dose end: 91 week.
Data set [4] relates to dog. To be noted: Subchronic oral toxicity in nonrodent, beagle, Feed, dose end: 6 month, group: cholinesterase, cholinesterase / cholinesterase / cholinesterase / erythrocyte cholinesterase (che) + cholinesterase / cholinesterase / cholinesterase / ….
Data set [5] concerns rat. To be noted: Multigenerational reproductive toxicity study, wistar, Oral, Feed, dose end: 2 generation.
Data set [6] deals with rat. To be noted: Combined chronic toxicity/carcinogenicity, sprague dawley, Oral, Feed, dose end: 24 month.
The test system of another data set is rabbit. To be noted: Subchronic dermal toxicity, new zealand white, Topical, dose end: 13 week, group: systemic, systemic / in life observation / clinical signs / desquamation + systemic / in life observation / clinical signs / erythema + systemic / in ….
Data set [7] relates to mouse. The following applies: Multigenerational reproductive toxicity study, cd1, Oral, Feed, dose end: 1 generation.
The subject of data set [8] is mouse. The following applies: Subchronic oral toxicity in rodents, b6c3f1, Feed, dose end: 13 week, group: systemic.
Data set [9] relates to rat. To be noted: Subchronic oral toxicity in rodents, fischer, Feed, dose end: 13 week, group: systemic.
Data set [10] concerns rat. The following applies: Subchronic oral toxicity in rodents, fischer, Feed, dose end: 13 week, group: systemic. The source holds these as a separate data set.
The subject of data set [11] is rat. The following applies: Carcinogenicity, sprague dawley, Oral, Gavage/Intubation, dose end: 105 week, group: systemic.
[12] abbreviates: group: cholinesterase, cholinesterase / cholinesterase / cholinesterase / erythrocyte cholinesterase (che) + cholinesterase / cholinesterase / cholinesterase / ….
Where [13] appears, read: group: reproductive, reproductive / reproductive performance / estrous cycle / abnormal.
[14] abbreviates: group: systemic, systemic / organ weight / liver / absolute + systemic / organ weight / liver / relative to brain weight.
The mark [15] stands for this setting: group: systemic, systemic / organ weight / liver / absolute + systemic / organ weight / liver / relative to brain weight + systemic / clinical chemistry / ….
The mark [16] stands for this setting: group: cholinesterase, cholinesterase / cholinesterase / cholinesterase / plasma cholinesterase (che) + cholinesterase / cholinesterase / cholinesterase / ….
Setting [17] is: group: systemic, systemic / in life observation / body weight / body weight + systemic / in life observation / body weight / body weight gain + systemic / in….
Setting [18] is: group: cholinesterase, cholinesterase / cholinesterase / cholinesterase / brain cholinesterase (che) + cholinesterase / cholinesterase / cholinesterase / ….
[19] abbreviates: group: systemic, systemic / pathology microscopic / intestine small / hyperplasia + systemic / in life observation / mortality / mortality + systemic / ….
[20] abbreviates: group: systemic, systemic / pathology microscopic / intestine small / hyperplasia + systemic / pathology microscopic / bone marrow / hyperplasia.
The mark [21] stands for this setting: group: cholinesterase, cholinesterase / cholinesterase / cholinesterase / cholinesterase (che).
[22] abbreviates: group: cholinesterase, cholinesterase / cholinesterase / cholinesterase / cholinesterase (che) + cholinesterase / cholinesterase / cholinesterase / brain ….
Setting [23] is: group: offspring, developmental / offspring survival late / lactation index / lactation index + developmental / offspring survival late / [other] / [other] + ….
Where [24] appears, read: group: offspring, systemic / in life observation / clinical signs / no milk in stomach.
Where [25] appears, read: group: parental, systemic / in life observation / body weight / body weight gain + systemic / in life observation / clinical signs / hyperreflexitivity.
[26] abbreviates: group: reproductive, reproductive / offspring survival early / litter size / litter size.
Where [27] appears, read: group: cholinesterase, cholinesterase / cholinesterase / cholinesterase / plasma cholinesterase (che).
Where [28] appears, read: group: cholinesterase, cholinesterase / cholinesterase / cholinesterase / plasma cholinesterase (che) + cholinesterase / cholinesterase / cholinesterase / brain ….
Setting [29] is: group: systemic, systemic / pathology microscopic / pancreas / atrophy.
Setting [30] is: group: systemic, systemic / pathology microscopic / pancreas / atrophy + systemic / pathology microscopic / pancreas / adenoma + systemic / in life ….
Where [31] appears, read: group: offspring, systemic / in life observation / body weight / offspring (pup) weight + systemic / in life observation / body weight / offspring (pup) ….
The mark [32] stands for this setting: group: parental, systemic / in life observation / body weight / body weight + systemic / in life observation / mortality / mortality + systemic / in life ….
The mark [33] stands for this setting: group: reproductive, reproductive / offspring survival early / birth index / live birth index.
[34] abbreviates: systemic / clinical chemistry / alanine aminotransferase (alt/sgpt) / alanine aminotransferase (alt/sgpt) + systemic / clinical chemistry / ….
Setting [35] is: systemic / in life observation / body weight / body weight + systemic / organ weight / liver / absolute.
Setting [36] is: systemic / pathology microscopic / kidney / dilatation + systemic / pathology microscopic / kidney / hyaline droplet + systemic / pathology ….
[37] abbreviates: systemic / pathology microscopic / kidney / regeneration + systemic / clinical chemistry / thyroxine (t4) / thyroxine (t4), free + systemic….
Setting [38] is: systemic / pathology microscopic / kidney / cytoplasmic alteration + systemic / pathology microscopic / kidney / dilatation + systemic / ….
Where [39] appears, read: systemic / pathology microscopic / kidney / regeneration + systemic / urinalysis / aspartate aminotransferase (ast/sgot) / aspartate ….
The mark [40] stands for this setting: systemic / clinical chemistry / [other] / [other] + systemic / clinical chemistry / thyroxine (t4) / thyroxine (t4), total + systemic / ….
The mark [41] stands for this setting: systemic / clinical chemistry / [other] / [other] + systemic / organ weight / liver / relative to body weight + systemic / clinical ….

On to `CCNP(=S)(OC)O/C(C)=C/C(=O)OC(C)C` (stereo not drawn) [Propetamphos], for which the LEL in the data set on dog [1] (setting [12]) came out at 0.59 mg/kg/day; in the data set with dog [1] (setting [13]), 3.39 mg/kg/day; in the data set on dog [1] (setting [14]) it was 0.59 mg/kg/day; in the data set on mouse [2] (setting [16]) it was 1 mg/kg/day; with mouse [2] (setting [17]), 59 mg/kg/day; with mouse [3] (setting [18]), 1 mg/kg/day. Further, the LEL with mouse [3] (setting [20]) was 6 mg/kg/day; with dog [4], 0.083 mg/kg/day; in the data set with rat [5] (setting [21]), 2.1 mg/kg/day; with rat [5] (setting [24]) it was 0.5 mg/kg/day; in the data set on rat [5] (group: parental, systemic / in life observation / body weight / body weight gain), 3.7 mg/kg/day; in the data set with rat [5] (setting [26]) it was 0.5 mg/kg/day. Besides, the LEL with rat [6] (setting [27]) came to 0.632 mg/kg/day; in the data set with rat [6] (setting [29]), 0.689 mg/kg/day. Further, the lowest-observed-adverse-effect level (LOAEL) with dog [1] (setting [12]) was 0.59 mg/kg/day; with dog [1] (setting [13]), greater than 3.39 mg/kg/day; with dog [1] (setting [14]) it was 0.59 mg/kg/day; in the data set with mouse [2] (setting [16]) it was 1 mg/kg/day; in the data set with mouse [2] (group: systemic, systemic / in life observation / body weight / body weight + systemic / in life observation / body weight / body weight gain) it was 59 mg/kg/day; in the data set with mouse [3] (setting [18]), 1 mg/kg/day. In addition, the LOAEL in the data set on mouse [3] (setting [20]) is 6 mg/kg/day; with dog [4], 0.165 mg/kg/day; with rat [5] (setting [21]), 2.1 mg/kg/day; with rat [5] (setting [23]) it was 8 mg/kg/day; in the data set with rat [5] (setting [25]), 7.1 mg/kg/day; with rat [5] (group: reproductive, reproductive / reproductive performance / implantations / implantations + reproductive / reproductive performance / mating / mating + …), 11.3 mg/kg/day. The values for the LOAEL in the data set on rat [6] (setting [27]) and in the data set on rat [6] (setting [29]) were 0.632 mg/kg/day and 0.689 mg/kg/day, respectively. Moreover, the NEL in the data set with dog [1] (setting [12]) was 0.13 mg/kg/day; in the data set on dog [1] (setting [13]) it was 0.67 mg/kg/day; with dog [1] (setting [15]), 0.13 mg/kg/day; in the data set on mouse [2] (setting [16]), less than 1 mg/kg/day; with mouse [2] (setting [17]) it was 28 mg/kg/day; with mouse [3] (setting [18]), 0.05 mg/kg/day. The NEL in the data set on mouse [3] (setting [19]) is 1 mg/kg/day; in the data set with dog [4], less than 0.083 mg/kg/day; in the data set with rat [5] (setting [22]), 0.3 mg/kg/day; in the data set with rat [5] (setting [24]) it was less than 0.5 mg/kg/day; in the data set on rat [5] (group: parental, systemic / in life observation / body weight / body weight gain + systemic / in life observation / clinical signs / hyperreflexitivity + …), 0.5 mg/kg/day; in the data set on rat [5] (setting [26]), less than 0.5 mg/kg/day. Also, the figures for the NEL in the data set with rat [6] (setting [28]) and with rat [6] (setting [30]) were 0.376 mg/kg/day and 0.412 mg/kg/day, respectively. Further, the no-observed-adverse-effect level (NOAEL) in the data set on dog [1] (setting [12]) was 0.13 mg/kg/day; in the data set with dog [1] (setting [13]) it was no less than 3.39 mg/kg/day; in the data set on dog [1] (setting [15]) it was 0.13 mg/kg/day; in the data set on mouse [2] (setting [16]) it was less than 1 mg/kg/day; in the data set with mouse [2] (setting [17]), 28 mg/kg/day; with mouse [3] (setting [18]) it was 0.05 mg/kg/day. Also, the no-observed-adverse-effect level (NOAEL) in the data set on mouse [3] (setting [19]) was 1 mg/kg/day; in the data set with dog [4], 0.083 mg/kg/day; in the data set with rat [5] (setting [22]), 0.3 mg/kg/day; in the data set with rat [5] (setting [23]), 3 mg/kg/day; with rat [5] (setting [25]) it was 2.8 mg/kg/day; with rat [5] (group: reproductive, reproductive / reproductive performance / implantations / implantations + reproductive / reproductive performance / mating / mating) it was 3.7 mg/kg/day. For the same molecule, the NOAEL with rat [6] (setting [28]) is 0.376 mg/kg/day; in the data set with rat [6] (setting [30]), 0.412 mg/kg/day.
For `CC(=O)O.CC(=O)O.NC(=NCCCCCCN=C(N)/N=C(\N)Nc1ccc(Cl)cc1)/N=C(\N)Nc1ccc(Cl)cc1` [Chlorhexidine diacetate], in the data set with rabbit, the LEL came out at 250 mg/kg/day, the LOAEL turned out to be 250 mg/kg/day, the NEL was less than 250 mg/kg/day and the NOAEL was less than 250 mg/kg/day.
Turning to `Clc1cc(Cl)c(Cl)cc1Cl` [1,2,4,5-Tetrachlorobenzene], the LEL in the data set on mouse [7] (setting [31]) stood at 100 mg/kg/day; with mouse [7] (group: parental, systemic / in life observation / body weight / body weight + systemic / organ weight / testes / absolute) it was 100 mg/kg/day; in the data set on mouse [7] (setting [33]) it was 100 mg/kg/day; with mouse [8] (setting [35]), 4 mg/kg/day; in the data set with rat [9] (setting [37]), 2.1 mg/kg/day; in the data set with rat [10] (setting [39]), 2.1 mg/kg/day. Besides, the lowest observed adverse effect level (LOAEL) with mouse [7] (setting [31]) is greater than 250 mg/kg/day; with mouse [7] (setting [32]) it was greater than 250 mg/kg/day; in the data set with mouse [7] (setting [33]), greater than 250 mg/kg/day; in the data set with mouse [8] (setting [34]), greater than 450 mg/kg/day; in the data set with rat [9] (setting [36]), 7.1 mg/kg/day; in the data set with rat [10] (setting [38]), 7.1 mg/kg/day. Besides, the NEL in the data set with mouse [7] (setting [31]) is 40 mg/kg/day; in the data set on mouse [7] (group: parental, systemic / in life observation / body weight / body weight + systemic / in life observation / mortality / mortality), 40 mg/kg/day; with mouse [7] (setting [33]) it was 40 mg/kg/day; with mouse [8] (setting [35]), less than 4 mg/kg/day; with rat [9] (setting [37]), less than 2.1 mg/kg/day; in the data set with rat [10] (setting [39]), less than 2.1 mg/kg/day. For the same molecule, the no observed adverse effect level (NOAEL) is no less than 250 mg/kg/day in the data set with mouse [7] (setting [31]); no less than 250 mg/kg/day with mouse [7] (setting [32]); no less than 250 mg/kg/day in the data set on mouse [7] (setting [33]); no less than 450 mg/kg/day in the data set with mouse [8] (setting [34]); 2.1 mg/kg/day in the data set on rat [9] (setting [36]); 2.1 mg/kg/day in the data set with rat [10] (setting [38]).
On to `Clc1cc2oc3c(Cl)c(Cl)c(Cl)cc3c2cc1Cl` [2,3,4,7,8-Pentachlorodibenzofuran], for which, in the data set on rat [11] (setting [40]), the lowest-observed-adverse-effect level (LOAEL) is greater than 0.0002 mg/kg/day and the NOAEL was no less than 0.0002 mg/kg/day. Also, in the data set with rat [11] (setting [41]), the LEL came out at 6e-06 mg/kg/day and the NEL is less than 6e-06 mg/kg/day.
